Data as given in patent US9927444B2, “Bone marrow-derived hematopoietic progenitor cells and endothelial progenitor cells as prognostic indicators for cancer” (Cornell University, priority 2011, dated 2018).

How the values were obtained:
[1] = reversible, managed with dose reductions; cited from earlier work
[2] = tested on: advanced malignancy refractory to standard therapy; settings: phase I; cited from earlier work
[3] = tested on: breast cancer at high risk for relapse; experiment: Clinical outcomes (relapse, progression-free survival), phase II TM trial; type: in vivo, human
Method: (§1) This phase II, open-label, single-arm study was conducted to assess patients with breast cancer at high risk for relapse. Patients were enrolled on an Institutional Review Board approved trial (NCT00195091, 0903-882, 0309006307) at Weill Cornell Medical College (WCMC) Iris Cantor Breast Cancer Center. Written informed consent was obtained prior to undergoing any study-specific procedures in accordance with the Declaration of Helsinki.
Patients underwent imaging of investigator's choice, CT of chest, abdomen, and pelvis or PET/CT every 6 months and as needed to assess for relapse, using Response Evaluation Criteria in Solid Tumors (RECIST).
(§2) PFS was analyzed using survival analysis techniques.

[4] = stored under argon; cited from earlier work
[5] = tested on: VEGFR1+ hematopoietic progenitor cells (HPCs); experiment: Enumeration of circulating HPCs by flow cytometry, phase II TM trial; type: in vivo, human; settings: patients on TM
Method: (§3) Ten to 20 mL of venous blood were collected in EDTA-containing tubes and processed within 12 hours. Peripheral blood mononuclear cells were isolated by Ficoll density-gradient centrifugation. To quantitate circulating EPCs, cells were stained with CD133-PE (Miltenyi Biotec, Auburn, Calif.), VEGFR2-APC (R&D Systems, Minneapolis, Minn.), and CD45-PerCP (BD Biosciences, Franklin Lakes, N.J.). To quantitate HPCs, cells were stained with CD34-FITC (BD Biosciences), VEGFR1-APC (R&D Systems), and CD45-PerCP (BD Biosciences). An aliquot of cells was also stained with the appropriate isotype controls (mouse anti-human IgG1k). Samples were analyzed using a FACSCalibur flow cytometer (Bectin Dickinson, San Jose, Calif.). Three hundred thousand events were collected in the nucleated cell gate (excludes debris and platelets). Data analysis was done using FlowJo software (FlowJo, Ashland, Oreg.). A series of consecutive gates were made to include and exclude acquired events to quantitate specific populations such as CD45^+, CD34^+, VEGFR1^+. The number of EPCs and HPCs per mL of blood was calculated as follows: HPC/mL=(# HPC events/# lymphocyte events)×absolute lymphocyte count (lymphocytes/mL). EPC/mL=(# EPC events/# lymphocyte events)×absolute lymphocyte count (lymphocytes/mL). HPCs were defined as CD45^+, CD34^+, VEGFR1^+ (FIGS. 5A-5C). […]
as §2

[6] = Safety and tolerability (CTCAE version 3.0), phase II TM trial
Description: (§4) The National Cancer Institute—Common Toxicity Criteria for Adverse Events (CTCAE) version 3.0 were used for toxicity and adverse event reporting. In the event of grade 3/4 toxicity, dosing was held until recovery. Treatment was resumed at the investigator's discretion at 50% of the previous dose. […] In the event of grade 2 toxicity, the dose of TM was held until recovery and a new cycle could be initiated at 100%. If grade 2 toxicity recurred, dosing was held until recovery and the next cycle was resumed at 50%. All patients were available to be evaluated for toxicity.
(§5) The intent-to-treat (ITT) population consisted of all patients who received at least one dose of TM. […] The following outcomes were recorded: toxicity attributable to TM, time to progression of disease, number of circulating hemangiogenic progenitor cells, serum markers of angiogenesis. Descriptive statistics for demographic and angiogenic variables were calculated for all patients. […] All p-values were two-sided with statistical significance evaluated at the 0.05 alpha level. All analyses were performed in SPSS Version 18.0 (SPSS Inc., Chicago, Ill.).

[7] = tested on: VEGFR2+ endothelial progenitor cells (EPCs); experiment: Enumeration of circulating EPCs by flow cytometry, phase II TM trial; type: in vivo, human
Method: as §3, §2

[8] = in vivo
Description: as §4, §5

[9] = tested on: SDF1, VEGFR2, C-kit; experiment: Plasma angiogenic factors and cytokine profiling, phase II TM trial; type: in vivo, human
Method: Plasma SDF-1 was detected by enzyme-linked immunosorbent assay (R&D Systems) according to manufacturer's protocol. Plasma levels of c-kit, VEGF, VEGFR1, VEGFR2, bFGF, and PIGF were detected by multiplex assay (Meso Scale Discovery, Gaithersburg, Md.) per manufacturer protocol.
as §2

[10] = tested on: advanced renal cell carcinoma; settings: 13 patients; cited from earlier work
[11] = tested on: malignant mesothelioma; settings: after adjuvant TM; doubling from 10; cited from earlier work
[12] = tested on: serum ceruloplasmin (Cp); experiment: Serum ceruloplasmin (Cp) levels / copper depletion, phase II TM trial; type: in vivo, human
Method: as §1
TM was administered in two phases, induction and maintenance: A) Induction: Patients self-administered TM 180 mg by mouth daily in 4 divided doses until serum Cp levels decreased to a target range of 5-16 mg/dL. One month of TM therapy comprised 1 cycle. Cp levels were tested every 2 weeks for the first 4 weeks and then weekly until target Cp was reached. When Cp levels were within target range, patients were switched to the maintenance phase. B) Maintenance: TM 100 mg taken daily in divided doses. Patients were followed every 2 weeks for 4 weeks to ensure Cp levels were stable then every 4 weeks. Dose reductions in 20 mg increments were allowed to minimize toxicity. Dose increases in 20 mg increments were allowed every 2 weeks to keep Cp levels in target range. […] Patients brought completed medication logs to each visit. The duration of the trial was 2 years.
The ITT population consisted of 39 patients. […] Target for copper depletion was defined as Cp below 17 mg/dL. Of those who took at least one dose of TM, 59% […] of patients were effectively copper depleted and 15 patients (37.5%) were unable to be copper depleted. Mean Cp of copper depleted pts and non-copper depleted patients was 13.5 and 22.3 mg/dL, respectively (FIG. 1a). Patients spent a median of 78% of time (range 58 to 100%) within target Cp levels during the study . . . . […] 91% of triple-negative patients successfully copper depleted compared to the hormone-receptor subtypes (38-43%) and HER2-positive subtypes (40-67%) (FIG. 7B).

[SH-].[SH-].[S]=[Mo]=[S] [TM, Tetrathiomolybdate]
patients with grade 3 or 4 hematologic toxicity [1]: up to 40% | induction of copper depletion [2]: effective at inducing copper depletion | patients maintaining stable disease for at least 90 days [2]: 15 of 40 | tolerability [2]: well-tolerated | 10-month PFS ([3]; all patients, 95% CI, 74.6-96.8%): 85.0% | patients who developed recurrence ([3]; first 12 months of study, six patients): 15% | 10-month PFS ([3]; hormone-receptor-positive patients): 85.7% | 10-month PFS ([3]; stage 2 and 3 patients): 89.3% | 10-month PFS ([3]; stage 4 NED patients): 75.0% | 10-month PFS ([3]; triple-negative patients): 81.8% | stability when exposed to air [4]: 8 weeks | change in HPCs [5]: no significant changes | grade 3 anemia, cycles ([6]; 1 cycle, patient later diagnosed with B12 deficiency): 0.2% | patients with dose interruptions, delays, reductions, or omissions due to toxicity ([6]; 3 of 39 ITT patients): 7.7% | grade 1 peripheral neuropathy, cycles ([6]; 6 cycles): 1.4% | grade ¾ neutropenia, patients ([6]; 9 patients): 23.1% | grade ¾ neutropenia, cycles ([6]; 13 cycles): 3.1% | grade ½ anemia, patients ([6]; 14 patients): 35.9% | grade ½ neutropenia, patients ([6]; 23 patients): 59.0% | grade 1 fatigue, cycles ([6]; 29 cycles): 6.8% | grade ½ anemia, cycles ([6]; 50 cycles): 11.7% | grade ½ neutropenia, cycles ([6]; 67 of 426 cycles): 15.7% | sulfurous eructations, cycles ([6]; 79 cycles, resolved with a PPI in >90% of patients): 18.5% | overall tolerability ([6]; 426 cycles in 39 patients, first 12 months): well tolerated | grade 3 or 4 non-hematologic toxicity ([6]; in vivo): no grade 3 or 4 non-hematologic toxicity | grade 4 anemia ([6]; in vivo): no grade 4 incidences | grade 1 or 2 gastrointestinal toxicity (nausea, vomiting or diarrhea) ([6]; managed with dose adjustment alone): Eight | median number of EPCs ([7]; at 1 year of TM therapy, median baseline 0.0398 (range 0-0.21), range 0-0.18): 0.0363 cells/uL | EPCs relative to baseline ([7]; majority of patients, when Cp was in the target range): maintained below baseline | treatment-related deaths [8]: no treatment-related deaths | mean SDF1 ([9]; non-relapsed patients, decreased from 1870): 1811 pg/mL | change in SDF1, VEGFR2, and C-kit ([9]; patients while on therapy): did not significantly change | mean SDF1 ([9]; patients who relapsed, increased from 2093): 3052 pg/mL | median duration of stable disease [10]: 34.5 weeks | time to progression [11]: 20 months | patients unable to be copper depleted ([12]; 15 patients): 37.5% | patients successfully copper depleted ([12]; HER2-positive subtypes): 40-67% | mean Cp level on TM ([12]; ITT population, at a median of 4 weeks, median baseline Cp 29.7 mg/dL (range 21 to 47), range 7 to 26): 14.2 mg/dL | mean Cp of copper depleted pts ([12]; copper depleted patients): 13.5 mg/dL | patients successfully copper depleted ([12]; hormone-receptor subtypes): 38-43% | mean Cp of non-copper depleted patients ([12]; non-copper depleted patients): 22.3 mg/dL | median % of time within target Cp levels during the study ([12]; range 58 to 100%): 78% | patients effectively copper depleted ([12]; those who took at least one dose of TM, target Cp below 17 mg/dL, printed 23/40): 59% | patients successfully copper depleted ([12]; triple-negative patients): 91%
